Article PMC9200803, “Design, synthesis, and biological evaluation of tetrahydroquinolinones and tetrahydroquinolines with anticancer activity” (Scientific Reports, 2022)

Assays:
HEK293 cells = experiment: MTT cell viability assay, HEK293; assay type: cell-based, human; conditions: Homo sapiens, HEK293, IC50 ± SD
HCT-116 cells [1] = experiment: ROS level, H2DCFDA probe, flow cytometry, HCT-116; assay type: cell-based
Method: Reactive oxygen species (ROS) affect the cellular redox homeostasis resulting in extensive and irreparable damage and ultimately cell death. Anticancer compounds with cytotoxic properties often cause disturbances in the redox state in cells. Therefore, we performed a time-dependent kinetic analysis of the intracellular ROS level in colon cancer cell lines after treatment with 20d.
(§1) The […] ROS levels were determined using an H2DCFDA (2′,7′-dichlorodihydrofluorescein diacetate) probe (Thermo Fisher) following the manufacturer’s protocol. […] DMSO (1%, Merck) and 250 μM H2O2 were used as a negative and positive control, respectively. NAC (500 μM, Sigma-Aldrich) was used as an ROS scavenger to confirm the ROS activity. After treatment with 20d and 19b, cells were incubated with H2DCFDA at 37 °C for 30 min. Subsequently, cells were harvested by trypsinization, rinsed with PBS, and stained with 7-AAD (Thermo Fisher). Finally, the stained cells were analyzed by flow cytometry using a Guava easyCyte 8 cell sorter (Merck Millipore) and FlowJo v10 software.
ROS analysis was performed by seeding the cells into cover glass-bottom 24-well plates for live-cell imaging. Cells were treated with compounds and stained as described above for flow cytometry. […]

[2] = test system: hMLH1-deficient RKO cells; experiment: ROS level, H2DCFDA probe, MMR-deficient RKO; assay type: cell-based, human; conditions: 1 h of exposure, vs control
Method: (§2) Then, we confirmed whether the induction of cellular stress by 20d is related to MMR deficiency by exposing MMR-deficient and MMR-proficient cells to the compound for different times and measuring the ROS levels. Our results indicated a greater increase in the level of ROS after 1 h of exposure in 20d-treated MMR-deficient cells than in MMR-proficient cells (54.71 ± 2.70% and 22.27 ± 1.7%, respectively), in comparison to control (Fig. 7).
as §1

[3] = test system: hMLH1-proficient RKO cells; experiment: ROS level, H2DCFDA probe, MMR-proficient RKO; assay type: cell-based, human; conditions: 1 h of exposure, vs control
Method: as §2, §1

HCT-116 cells [4] = experiment: Western blot protein expression in HCT-116 cells; assay type: cell-based, human
Method: HCT-116 cells were seeded into 60-mm Petri dishes at a density of 1.5 × 10^6 cells per dish and incubated overnight. […] After treatment, cells were lysed in Laemmli buffer with a protease and phosphatase inhibitors cocktail (Roche), followed by sonification The lysate was cleared by centrifuging at 16,000×g for 15 min at 12 °C. The supernatant was collected, and the extract was quantified for protein using the DC Protein Assay (Bio-Rad). Proteins were resolved by 10% or 12% sodium dodecyl sulfate–polyacrylamide gel electrophoresis and transferred to polyvinylidene difluoride membranes (Bio-Rad). Membranes were blocked using 5% (w/v) bovine serum albumin (Sigma-Aldrich) in 1× TBST (pH 7.4 and 0.1% Tween-20) for 1 h at room temperature and subsequently incubated overnight with primary antibodies at 4 °C. The blots were washed thrice with TBST and then incubated with horseradish peroxidase-conjugated antibodies for 1 h at room temperature. After washing, the membranes were evaluated for detecting the protein bands using enhanced chemiluminescence detection reagent kit (Thermo Fisher) and ChemiDoc XRS + Imaging System (Bio-Rad). The band intensity was measured using ImageLab 5.2 software (Bio-Rad).

HCT-116 cells [5] = experiment: Wound healing assay; assay type: cell-based, human; conditions: HCT-116, 10 and 20 µM, 30 and 36 h of treatment
Method: A decrease in cell–cell adhesion correlates with tumor invasion and metastasis. Migration leads to spreading and metastasis of cancer cells and is thus associated with poor prognosis of many types of cancer. Moreover, studies indicate that metastasis is the major cause of death in patients with colorectal cancer (CRC)[58]. To investigate the effect of 20d on migration, HCT-116 cells were cultured and investigated by wound healing assay. The percentage of migration was monitored over time by capturing a series of images after every 6 h up to 36 h of treatment.
The antimigratory properties of 20d were investigated in HCT-116 cell line using wound healing assay. Briefly, cells were seeded and allowed to attach to the Ibidi-silicone insert on a cover glass-bottom 24-well plate for live-cell imaging. Next, the inserts were dislodged, and subsequently, cells were washed with a fresh medium and incubated with various concentrations of 20d in an imaging chamber (cellVivo incubation system, Olympus). For monitoring the migration of cells by live-cell microscopy with time-lapse photography, images were captured every 15 min for 36 h under 10× magnification using a fluorescence microscope (IX83 Inverted Microscope, Olympus) equipped with an XC50 phase-contrast digital color camera (Olympus). The distance between gaps was measured using ImageJ software.

## O=C(Nc1cccc(F)c1)OC1CCCc2c(-c3ccccc3)cc(=O)[nH]c21 (stereo not drawn) [Compound 20d, (2-oxo-4-phenyl-5,6,7,8-tetrahydroquinolin-8-yl) N-(3-fluorophenyl)carbamate]
HEK293 cells
  IC50: > 50 µM
HCT-116 cells [1]; HCT-116, IC50 concentration, 1-24 h
  increase in ROS level compared to vehicle: ~ 30%
HCT-116 cells [1]; HCT-116, NAC 500 μM
  cytotoxic effect after pretreatment with NAC: NAC diminished the cytotoxic effect
[2]
  increase in the level of ROS: 54.71 ± 2.70%
[3]
  increase in the level of ROS: 22.27 ± 1.7%
HCT-116 cells [4]; HCT-116
  expression of LAMP-1 protein: time-dependent increase
  expression of vimentin: significantly altered
  level of phospho-AKT (Ser473): significantly reduced
  level of phospho-mTOR (Ser2448): significantly reduced
HCT-116 cells [4]; HCT-116, 24–72 h, immunoblot and immunofluorescence
  expression of p-γ-H2AX: significantly increased
HCT-116 cells [4]; HCT-116, 72 h, vs DMSO
  cyclin D1 expression: slight inhibition
HCT-116 cells [4]; HCT-116, even after 24 h
  β-catenin: caused the cleavage of β-catenin
HCT-116 cells [4]; HCT-116, vs control
  levels of LC3-II: higher
HCT-116 cells [4]; HCT-116, vs control, p < 0.001
  expression of p21: markedly higher
  expression of p27: markedly higher
  expression of p53: markedly higher
HCT-116 cells [4]; HCT-116, vs vehicle
  expression of c-myc: downregulated
HCT-116 cells [5]
  inhibition of migration: 30–50%
